Some test systems named below: A498 renal; CAKI-1 renal; COLO 205 colon; DU-145 prostate; HOP-92 NSCLC; HS 578T breast; MOLT-4 leukemia; OVCAR-3 ovarian; OVCAR-8 ovarian; SK-OV-3 ovarian; UO-31 renal.
Common to all, as to test: inhibition of tumour cell growth, NCI panel, 48 h

Structures are written as SMILES.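 In this assay, cells in 96-well plates receive the compound at five concentrations for 48 hours. Endpoints are linearly interpolated between the surrounding concentrations. TGI: total growth inhibition.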

In the case of `COc1ccc(C[C@@H]2CN(C(=O)c3ccccc3)[C@H](Cc3ccc(O)cc3)CN2C(=O)c2ccccc2)cc1Br`, the TGI in the experiment with A498 renal, in the experiment on CAKI-1 renal, in the experiment with COLO 205 colon, in the experiment with DU-145 prostate, with HOP-92 NSCLC and with HS 578T breast was above 100 µM in each case. For the same compound, the TGI in the experiment with MOLT-4 leukemia, in the experiment on OVCAR-3 ovarian, with OVCAR-8 ovarian, in the experiment with SK-OV-3 ovarian and in the experiment with UO-31 renal was above 100 µM throughout.

For `c1ccc(COc2ccc(C[P+](c3ccccc3)(c3ccccc3)c3ccccc3)cc2)cc1`, the TGI in the experiment on A498 renal worked out at 5.51 µM; in the experiment with CAKI-1 renal it was 20.2 µM; with COLO 205 colon, 3.26 µM; in the experiment on DU-145 prostate it was 12.9 µM; in the experiment on HOP-92 NSCLC, 0.585 µM; in the experiment on HS 578T breast, 3.19 µM. In addition, the TGI with MOLT-4 leukemia came to 1.94 µM; in the experiment on OVCAR-3 ovarian it was 11 µM; in the experiment on OVCAR-8 ovarian it was 2.18 µM; with SK-OV-3 ovarian, 3.42 µM; in the experiment with UO-31 renal it was 11 µM.

On to `COc1ccc(-n2c(CCCC(=O)O)nc3c2C(=O)c2ccccc2C3=O)cc1`, for which the TGI in the experiment on A498 renal, with CAKI-1 renal, in the experiment with COLO 205 colon, in the experiment with DU-145 prostate, in the experiment with HOP-92 NSCLC and in the experiment with HS 578T breast was above 100 µM in each case. For the same compound, the TGI with MOLT-4 leukemia is above 100 µM; with OVCAR-3 ovarian, 92.9 µM; in the experiment on OVCAR-8 ovarian, above 100 µM; in the experiment on SK-OV-3 ovarian, above 100 µM; in the experiment on UO-31 renal it was above 100 µM.

Turning to `COc1ccc2c(c1O)-c1c(OC)c(OC)cc3c1[C@H](C2)[N+](C)(C)CC3`, the TGI in the experiment on A498 renal, in the experiment on CAKI-1 renal, with COLO 205 colon, in the experiment on DU-145 prostate, in the experiment with HOP-92 NSCLC and in the experiment with HS 578T breast was above 100 µM throughout. Moreover, the TGI in the experiment on MOLT-4 leukemia, in the experiment on OVCAR-3 ovarian, in the experiment with OVCAR-8 ovarian, in the experiment on SK-OV-3 ovarian and with UO-31 renal was above 100 µM each time.

With `COc1cc2c(cc1OC)C(=O)N(c1ccc(O)cc1)C2`, the TGI in the experiment with A498 renal, in the experiment on CAKI-1 renal, with COLO 205 colon, in the experiment on DU-145 prostate, in the experiment with HOP-92 NSCLC and in the experiment on HS 578T breast was above 100 µM throughout. The TGI in the experiment on MOLT-4 leukemia, with OVCAR-3 ovarian, in the experiment with OVCAR-8 ovarian and in the experiment on SK-OV-3 ovarian was above 100 µM throughout.

Regarding `CSc1nc2c(c(N(C)C)n1)C=Nn1c(nc3ccccc31)S2`, the TGI with A498 renal is above 100 µM; in the experiment on CAKI-1 renal it was above 100 µM; in the experiment with COLO 205 colon it was above 100 µM; in the experiment on DU-145 prostate it was above 100 µM; with HOP-92 NSCLC, 89.4 µM; with HS 578T breast, above 100 µM. For the same compound, the TGI in the experiment with MOLT-4 leukemia, in the experiment with OVCAR-3 ovarian, with OVCAR-8 ovarian, with SK-OV-3 ovarian and with UO-31 renal was above 100 µM in each case.

As to `COC(=O)C1Cc2c(C)cccc2C1=O` (stereo not given), the TGI with A498 renal, in the experiment with CAKI-1 renal, in the experiment with COLO 205 colon, in the experiment on DU-145 prostate, in the experiment on HOP-92 NSCLC and in the experiment on HS 578T breast was above 100 µM throughout. Besides, the TGI in the experiment on MOLT-4 leukemia, with OVCAR-3 ovarian, with OVCAR-8 ovarian, in the experiment with SK-OV-3 ovarian and in the experiment with UO-31 renal was above 100 µM in each case.

Turning to `COc1ccc(NC(=S)NN=C(C)c2cccc(C(C)=NNC(=S)Nc3ccc(OC)cc3)n2)cc1`, the TGI in the experiment with A498 renal, with CAKI-1 renal, with COLO 205 colon, in the experiment with DU-145 prostate, in the experiment on HOP-92 NSCLC and in the experiment on HS 578T breast was above 100 µM in each case. In addition, the TGI with MOLT-4 leukemia, with OVCAR-3 ovarian, in the experiment with OVCAR-8 ovarian, in the experiment with SK-OV-3 ovarian and in the experiment with UO-31 renal was above 100 µM throughout.

As for `CCOC(=O)C1(Cc2ccc(C)cc2)Cc2ccc(C)cc2C1=O` (stereo not given), the TGI in the experiment on A498 renal was above 79.1 µM; in the experiment on CAKI-1 renal, above 100 µM; in the experiment with COLO 205 colon it was above 78.7 µM; in the experiment with DU-145 prostate it was above 100 µM; in the experiment with HOP-92 NSCLC it was above 100 µM; in the experiment with HS 578T breast, above 100 µM. For the same compound, the TGI with MOLT-4 leukemia is 27.7 µM; with OVCAR-3 ovarian it was above 100 µM; in the experiment with OVCAR-8 ovarian it was above 96.6 µM; in the experiment on SK-OV-3 ovarian, above 100 µM; in the experiment with UO-31 renal it was above 100 µM.

Turning to `CCC1(O)C=CC(=O)C=C1`, the TGI was 67.9 µM in the experiment with A498 renal; above 100 µM in the experiment with CAKI-1 renal; above 100 µM in the experiment with COLO 205 colon; above 64.4 µM in the experiment with DU-145 prostate; 75.9 µM in the experiment on HOP-92 NSCLC; above 100 µM in the experiment on HS 578T breast. The TGI in the experiment with MOLT-4 leukemia was above 100 µM; in the experiment on OVCAR-3 ovarian, 69.6 µM; in the experiment with OVCAR-8 ovarian, above 100 µM; in the experiment on SK-OV-3 ovarian, above 100 µM; in the experiment on UO-31 renal, 36.7 µM.

On to `Cc1c(C)c(C)c(-n2c(=O)n(C)c(=O)n2C(C)(C)C)c(C)c1C`, for which the TGI in the experiment on A498 renal, in the experiment with CAKI-1 renal, with COLO 205 colon, with DU-145 prostate, with HOP-92 NSCLC and with HS 578T breast was above 100 µM throughout. Besides, the TGI in the experiment with MOLT-4 leukemia, with OVCAR-3 ovarian, in the experiment with SK-OV-3 ovarian and in the experiment with UO-31 renal was above 100 µM each time.

Regarding `O=C1N[C@H]2c3c(Cl)sc(Cl)c3C(=O)[C@H]2O1`, the TGI in the experiment on A498 renal is 43.2 µM; in the experiment on CAKI-1 renal it was 49.5 µM; in the experiment with COLO 205 colon, above 51 µM; in the experiment with DU-145 prostate it was above 54.6 µM; in the experiment on HOP-92 NSCLC, 41.6 µM; in the experiment on HS 578T breast, 43.5 µM. Moreover, the TGI in the experiment on MOLT-4 leukemia came out at 5.11 µM; in the experiment on OVCAR-3 ovarian, 36.8 µM; with OVCAR-8 ovarian, 12.2 µM; with SK-OV-3 ovarian, 52.1 µM; in the experiment on UO-31 renal, 38.3 µM.

With `CCOC(=O)c1cc2cc(Cc3ccc4[nH]c(C(=O)OCC)cc4c3)ccc2[nH]1`, the TGI was 36.4 µM in the experiment with A498 renal; 34.3 µM in the experiment with CAKI-1 renal; above 100 µM in the experiment on COLO 205 colon; above 100 µM with DU-145 prostate; 27.8 µM in the experiment with HOP-92 NSCLC; 72.8 µM in the experiment with HS 578T breast. The TGI is above 100 µM in the experiment on MOLT-4 leukemia; above 100 µM in the experiment on OVCAR-3 ovarian; 23.6 µM with OVCAR-8 ovarian; 55.4 µM in the experiment with SK-OV-3 ovarian; above 100 µM in the experiment on UO-31 renal.

`COC(=O)Cc1c([C@@H]2Nc3ccccc3[C@H]2CC(=O)OC)[nH]c2ccccc12`: the TGI in the experiment with A498 renal is above 100 µM; with CAKI-1 renal, above 100 µM; in the experiment on COLO 205 colon it was 34.8 µM; in the experiment with DU-145 prostate it was above 100 µM; in the experiment with HOP-92 NSCLC, above 100 µM; in the experiment with HS 578T breast, above 100 µM. The TGI is 68.9 µM in the experiment with MOLT-4 leukemia; 42.8 µM in the experiment with OVCAR-3 ovarian; above 100 µM with OVCAR-8 ovarian; above 100 µM in the experiment with SK-OV-3 ovarian; 81.6 µM with UO-31 renal.

For the compound `COC1/C=C\C=C(/C)C(=O)NC2=CC(=O)C(NCCCl)=C(CC(C)CC(OC)C(O)C(C)/C=C(/C)C1OC(N)=O)C2=O` (stereo not given), the TGI was determined as 4.55 µM in the experiment with A498 renal; 8.67 µM with CAKI-1 renal; 1.2 µM in the experiment on COLO 205 colon; 11.4 µM in the experiment with DU-145 prostate; 18.6 µM in the experiment with HOP-92 NSCLC; 58.4 µM in the experiment on HS 578T breast. For the same compound, the TGI came to 5.13 µM in the experiment with MOLT-4 leukemia; 8.4 µM in the experiment on OVCAR-3 ovarian; 10.5 µM with OVCAR-8 ovarian; 2.11 µM in the experiment on SK-OV-3 ovarian; 10.6 µM with UO-31 renal.

On to `N#Cc1c(-c2ccco2)c2c(n(C3OC(CO)C(O)C(O)C3O)c1=S)CCCC2` (stereo not given), for which the TGI with A498 renal, in the experiment with CAKI-1 renal, in the experiment with COLO 205 colon, with DU-145 prostate, with HOP-92 NSCLC and with HS 578T breast was above 100 µM in each case. The TGI in the experiment with MOLT-4 leukemia, in the experiment with OVCAR-3 ovarian, in the experiment with OVCAR-8 ovarian and in the experiment on SK-OV-3 ovarian was above 100 µM each time.

As for `NC1=CN(CCCO)C2=N/C(=C\c3ccco3)C(=O)N12`, the TGI in the experiment on A498 renal, in the experiment on CAKI-1 renal, in the experiment with COLO 205 colon, with DU-145 prostate, in the experiment on HOP-92 NSCLC and in the experiment with HS 578T breast was above 100 µM each time. Also, the TGI with MOLT-4 leukemia, in the experiment on OVCAR-3 ovarian, in the experiment with OVCAR-8 ovarian, in the experiment with SK-OV-3 ovarian and with UO-31 renal was above 100 µM throughout.

On to `CCOn1cc(C[C@@]2(O)C(=O)OC3[C@@H](O)CO[C@@]32O)c2ccccc21` (stereo not given in full), for which the TGI in the experiment with A498 renal is 4.09 µM; in the experiment with CAKI-1 renal it was above 100 µM; with COLO 205 colon, above 100 µM; in the experiment on DU-145 prostate, above 100 µM; with HOP-92 NSCLC, above 100 µM; in the experiment on HS 578T breast, above 100 µM. In addition, the TGI in the experiment on MOLT-4 leukemia, in the experiment with OVCAR-3 ovarian, in the experiment on OVCAR-8 ovarian, in the experiment with SK-OV-3 ovarian and in the experiment on UO-31 renal was above 100 µM in each case.
